Key:
[1] = Cloud point of solfactants in various solutions; type: physicochemical
Source text: Various 2-Ethyl Hexanol Glycerin Ether Ethoxylate solfactants were produced using ethoxylation by a KOH Catalyst.
Further the cloud point data for the solfactants in various solutions is shown. The cloud point temperatures show the temperature above which a surfactant-rich phase separates from an aqueous solution. There is a clear relationship between the cloud point and the average EO content of the glycerin ether ethoxylate; as the ethylene oxide content of the solfactant increases, the cloud point and water solubility increase. As the carbon number on the molecule increases, a greater number of moles of ethylene oxide are required to be added to the molecule to retain the same cloud point.

[2] = Glewwe foam meter foam height test; type: physicochemical; settings: 50 ppm; for OBSERVATIONS (foam stability after pump stopped): after 5 minutes pump stopped; for Foam Height (in) @ 1 MIN / Foam Height (in) @ 5 MIN: city water 17 gpg, 140° F., 6 psi; for Foam Height (in) @ 1 MIN: 1 minute
Source text: Foam testing was completed for the ethoxylated glycerine ether solfactants in comparison to commercially-available ethoxylated alcohols using a Glewwe foam meter. A Glewwe foam meter provides a dynamic foam test rather than a static test, which is considered more appropriate for simulation of industrial conditions. The equipment and general procedure for the Glewwe form test is described in U.S. Pat. Nos. 3,899,387 and 5,447,648, which are herein incorporated by reference in its entirety. The foam meter itself consists of a thermostated reservoir and a pump to recirculate the aqueous medium with foaming tendencies. The foam developed by the action of the aqueous stream impinging on the surface in the reservoir causes foam formation.
The foam heights of the tested compositions were determined using the following method. First 3000 mL of city water (e.g. 17 gpg) was filled into the Glewwe cylinder. The pump was turned on, pressure adjusted to 6 psi, and heated water to 140° F. The commercially available surfactant (or the solfactant according to the invention) was added at 50 ppm in the cylinder and the timer was started. Foam height was recorded at 1 minute and 5 minutes. After 5 minutes the pump was stopped and foam stability characteristics were observed. The cylinder was then drained, rinsed, and the methods repeated.

[3] = Tergotometer detergency test on EMPA soiled swatches
Procedure: Laundry detergent compositions using 500 ppm sodium hydroxide (e.g. caustic) and the indicated conventional Surfonic® surfactant or the glycerin ether ethoxylate solfactant according to the invention were evaluated. A tergotometer test procedure was employed to measure detergency of test compositions according to the invention. A tergotometer along with 500 mL pots and water bath were employed. First, unwashed swatches from the lot numbers to be used in the test are read on the Konica Minolta Spectrophotometer model CM-3600d to establish the average initial (before washing) L value. A sampling of each swatch type is used. The desired wash temperature is programmed into the Tergotometer and its water bath is allowed to heat up to that temperature. 500 mL of the desired water type is added to each Tergotometer pot and allowed to equilibrate to the desired temperature.
The following standard, commercially available (EMPA) soiled swatches were used for baseline testing in the Examples, as shown in Table 9.
The test detergent compositions are weighed out and added to the Tergotometer pots. Various detergent compositions as shown in Tables 10-11 were employed under varying water conditions, including 5 grain water (Table 10) and 17 grain water (Table 11).
The detergent systems were agitated for 10 minutes to mix and dissolve in the water sources. The agitation/mixing speed RPM was adjusted to 200. The temperature of the detergent compositions dissolved in water was 60° C., unless indicated otherwise in the Figures/Examples set forth below. The swatches are added quickly to their respective pots in a left to right sequence in order to minimize differences in exposure time to the detergent systems. A wash run is completed for at least 10 minutes. At the end of the run, the swatches are removed from the pots quickly in a left to right sequence using a forceps and are transferred into 500 mL-1 liter of cool water to rinse. After rinsing with cold tap water, excess water from the swatches was removed by squeezing the swatches. The process was repeated with rinsing and squeezing excess water at least 2 more times. The swatches were air dried on a visa napkin or paper towel on the lab bench.
The swatches were then read on the HunterLab Color Quest and calculate % soil removal (i.e. whiteness) from the difference between the initial (before washing) L value and the final L value (after washing). Percent Soil Removal=(L after−L initial)/(96−L initial)*100 is represented as L*.

Gel formation with water = type: physicochemical
Source text: The low foam profiles and low viscosity of the glycerin ether ethoxylate solfactants as shown in Examples 5 and 6 were further compared to gel curves of conventional ethoxylated alcohols (e.g. Tomadol surfactants). […]

[4] = 5 gpg water, 50 ppm, 500 ppm sodium hydroxide, 60° C., EMPA 116 (Blood, milk and ink, Cotton)
[5] = 5 gpg, 50 ppm, EMPA 101 (olive oil/carbon black, Cotton)
[6] = 5 gpg, 50 ppm, EMPA 104 (olive oil/carbon black, Cotton blend)
[7] = 5 gpg, 50 ppm, EMPA 106 (mineral oil, Cotton)
[8] = 5 gpg, 50 ppm, EMPA 111 (Pig blood, Cotton)
[9] = 5 gpg, 50 ppm, EMPA 114 (Red wine, Cotton)
[10] = Glycerin Ether Ethoxylate %/Water % 10%/90%

Substance | OBSERVATIONS (foam stability after pump stopped) [2] | Foam Height (in) @ 1 MIN [2] | Foam Height (in) @ 5 MIN [2] | % removal EMPA 116 [3, 4] | % removal EMPA 101 [3, 5] | % removal EMPA 104 [3, 6] | % removal EMPA 106 [3, 7] | % removal EMPA 111 [3, 8] | % removal EMPA 114 [3, 9] | % removal EMPA 101 ([3]; 5 gpg, 100 ppm, EMPA 101) | % removal EMPA 104 ([3]; 5 gpg, 100 ppm, EMPA 104) | % removal EMPA 106 ([3]; 5 gpg, 100 ppm, EMPA 106) | % removal EMPA 111 ([3]; 5 gpg, 100 ppm, EMPA 111) | % removal EMPA 114 ([3]; 5 gpg, 100 ppm, EMPA 114) | % removal EMPA 116 ([3]; 5 gpg, 100 ppm, EMPA 116) | % removal EMPA 101 ([3]; 17 gpg, 50 ppm, EMPA 101) | % removal EMPA 104 ([3]; 17 gpg, 50 ppm, EMPA 104) | % removal EMPA 106 ([3]; 17 gpg, 50 ppm, EMPA 106) | % removal EMPA 111 ([3]; 17 gpg, 50 ppm, EMPA 111) | % removal EMPA 114 ([3]; 17 gpg, 50 ppm, EMPA 114) | further results
2-Ethyl Hexanol Glycerin Ether Ethoxylate (1 mole) [2EHGE (1 EO)] | Unstable - Breaks | 3 in | 3 in | 26% | 27% | 26% | 50.77% | 49% | 0% | 29% | 21% | 48.73% | 52% | −1% | 27% | 19% | 14% | 6% | 32% | 0% | Cloud Point Data 10% in BDG Soln. ([1]; 10% in BDG Soln.): 59.5 °C; % removal EMPA 116 ([3]; 17 gpg, 50 ppm, EMPA 116): 17%; % removal EMPA 101 ([3]; 17 gpg, 100 ppm, EMPA 101): 18%; % removal EMPA 104 ([3]; 17 gpg, 100 ppm, EMPA 104): 15%; % removal EMPA 106 ([3]; 17 gpg, 100 ppm, EMPA 106): 7%; % removal EMPA 111 ([3]; 17 gpg, 100 ppm, EMPA 111): 30%; % removal EMPA 114 ([3]; 17 gpg, 100 ppm, EMPA 114): −1%; % removal EMPA 116 ([3]; 17 gpg, 100 ppm, EMPA 116): 17%
2-Ethyl Hexanol Glycerin Ether Ethoxylate (3 moles) [2EHGE (3 EO)] | Unstable - Breaks | 3.5 in | 4 in | 34% | 45% | 49% | 60.8% | 50% | 1% | 29% | 25% | 50.39% | 48% | 0% | 29% | 17% | 15% | 14% | 29% | −2% | Cloud Point Data 1% in 10% NaCl [1]: 33 °C; Cloud Point Data 1% in D.I. H2O ([1]; 1% in D.I. H2O): 50.5 °C; Gel Formation (Gel formation with water; 20%/80%): None; Gel Formation (Gel formation with water; 30%/70%): None; Gel Formation (Gel formation with water; 40%/60%): None; Gel Formation (Gel formation with water; 50%/50%): None; Gel Formation (Gel formation with water; 60%/40%): None; Gel Formation (Gel formation with water; 70%/30%): None; Gel Formation (Gel formation with water; 80%/20%): None; Gel Formation (Gel formation with water; 90%/10%): None; Gel Formation (Gel formation with water; [10]): None; % removal EMPA 116 ([3]; 17 gpg, 50 ppm, EMPA 116): 15%; % removal EMPA 101 ([3]; 17 gpg, 100 ppm, EMPA 101): 19%; % removal EMPA 104 ([3]; 17 gpg, 100 ppm, EMPA 104): 13%; % removal EMPA 106 ([3]; 17 gpg, 100 ppm, EMPA 106): 9%; % removal EMPA 111 ([3]; 17 gpg, 100 ppm, EMPA 111): 27%; % removal EMPA 114 ([3]; 17 gpg, 100 ppm, EMPA 114): −1%; % removal EMPA 116 ([3]; 17 gpg, 100 ppm, EMPA 116): 16%
2-Ethyl Hexanol Glycerin Ether Ethoxylate (5 moles) [2EHGE (5 EO)] | Unstable - Breaks | 4 in | 4 in | 30% | 40% | 48% | 59.51% | 48% | 2% | 29% | 23% | 49.62% | 45% | 1% | 28% | 19% | 15% | 13% | 30% | 0% | Cloud Point Data 1% in 10% NaCl [1]: 71.5 °C; Gel Formation (Gel formation with water; 20%/80%): None; Gel Formation (Gel formation with water; 30%/70%): None; Gel Formation (Gel formation with water; 40%/60%): None; Gel Formation (Gel formation with water; 50%/50%): None; Gel Formation (Gel formation with water; 60%/40%): None; Gel Formation (Gel formation with water; 70%/30%): None; Gel Formation (Gel formation with water; 80%/20%): None; Gel Formation (Gel formation with water; 90%/10%): None; Gel Formation (Gel formation with water; [10]): None; % removal EMPA 116 ([3]; 17 gpg, 50 ppm, EMPA 116): 17%; % removal EMPA 101 ([3]; 17 gpg, 100 ppm, EMPA 101): 21%; % removal EMPA 104 ([3]; 17 gpg, 100 ppm, EMPA 104): 19%; % removal EMPA 106 ([3]; 17 gpg, 100 ppm, EMPA 106): 11%; % removal EMPA 111 ([3]; 17 gpg, 100 ppm, EMPA 111): 41%; % removal EMPA 114 ([3]; 17 gpg, 100 ppm, EMPA 114): 0%; % removal EMPA 116 ([3]; 17 gpg, 100 ppm, EMPA 116): 20%

From patent US10045529B2, “Quat cleaner with glycerin ether ethoxylates” (Ecolab USA Inc., priority 2012, dated 2018)
